How the values were obtained:
[1] = target: T1, Phosphorylase b kinase gamma catalytic chain, liver/testis isoform (Homo sapiens) (UniProt P15735); assay: Selectivity interaction (KinomeScan (DiscoverX)) EUB0001049a PHKG2; conditions: at 1 µM
T1 sequence (whole entry): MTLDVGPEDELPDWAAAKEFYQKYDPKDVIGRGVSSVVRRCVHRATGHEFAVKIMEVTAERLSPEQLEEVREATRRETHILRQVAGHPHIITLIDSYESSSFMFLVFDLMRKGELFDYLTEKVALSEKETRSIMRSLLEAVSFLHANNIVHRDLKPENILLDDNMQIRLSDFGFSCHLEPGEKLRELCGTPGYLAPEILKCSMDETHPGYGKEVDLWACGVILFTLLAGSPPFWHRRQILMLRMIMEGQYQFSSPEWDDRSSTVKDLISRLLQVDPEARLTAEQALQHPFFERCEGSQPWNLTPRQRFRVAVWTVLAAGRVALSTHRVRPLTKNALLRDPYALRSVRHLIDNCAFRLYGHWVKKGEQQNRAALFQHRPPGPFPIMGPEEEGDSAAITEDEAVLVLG

[2] = target: T2, Serine/threonine-protein kinase ULK3 (Homo sapiens) (UniProt Q6PHR2); assay: Selectivity interaction (ActivX KiNativ screen (kinase selectivity in THP-1 cell lysates)) EUB0000639a ULK3; assay type: subcellular; conditions: lysate, at 0.2 µM
T2 sequence (whole entry): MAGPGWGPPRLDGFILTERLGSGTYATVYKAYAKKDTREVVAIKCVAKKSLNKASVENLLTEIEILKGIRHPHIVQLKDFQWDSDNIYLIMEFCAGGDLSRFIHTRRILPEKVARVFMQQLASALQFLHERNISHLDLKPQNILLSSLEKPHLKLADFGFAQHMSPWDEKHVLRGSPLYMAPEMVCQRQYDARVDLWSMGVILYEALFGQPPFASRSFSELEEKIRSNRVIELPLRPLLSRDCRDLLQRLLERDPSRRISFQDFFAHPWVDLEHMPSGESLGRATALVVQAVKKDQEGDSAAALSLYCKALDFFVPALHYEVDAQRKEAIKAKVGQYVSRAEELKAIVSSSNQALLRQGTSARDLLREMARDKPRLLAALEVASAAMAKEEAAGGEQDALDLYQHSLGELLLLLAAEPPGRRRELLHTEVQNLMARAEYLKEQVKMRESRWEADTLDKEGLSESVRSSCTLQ

[3] = target: Mitogen-activated protein kinase 4 (Homo sapiens) (UniProt P31152); assay: Selectivity interaction (KinomeScan (DiscoverX)) EUB0000595a MAPK4; conditions: at 10 µM
Mitogen-activated protein kinase 4 (Homo sapiens), sequence (P31152 whole entry): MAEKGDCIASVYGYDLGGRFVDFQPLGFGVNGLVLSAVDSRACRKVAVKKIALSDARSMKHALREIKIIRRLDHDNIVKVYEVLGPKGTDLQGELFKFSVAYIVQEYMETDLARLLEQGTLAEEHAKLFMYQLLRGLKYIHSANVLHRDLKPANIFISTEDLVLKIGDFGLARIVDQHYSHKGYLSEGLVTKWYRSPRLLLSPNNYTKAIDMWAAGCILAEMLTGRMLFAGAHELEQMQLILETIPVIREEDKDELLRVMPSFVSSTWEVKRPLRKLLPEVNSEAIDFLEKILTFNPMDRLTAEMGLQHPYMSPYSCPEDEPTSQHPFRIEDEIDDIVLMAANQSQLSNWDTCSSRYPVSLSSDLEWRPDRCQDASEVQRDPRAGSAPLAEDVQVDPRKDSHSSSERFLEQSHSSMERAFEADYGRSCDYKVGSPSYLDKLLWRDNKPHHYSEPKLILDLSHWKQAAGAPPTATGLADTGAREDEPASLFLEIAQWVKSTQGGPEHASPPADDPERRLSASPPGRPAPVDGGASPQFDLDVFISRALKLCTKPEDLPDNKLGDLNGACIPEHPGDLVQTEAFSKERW

[4] = system: Mast/stem cell growth factor receptor Kit (Homo sapiens), P10721 [D816H]; assay: (§1) Selectivity interaction (Ambit KINOMEscan and KiNATiv profiling in Jurkat cells) EUB0000090b KIT; assay type: cell-based; conditions: at 1 µM
Mast/stem cell growth factor receptor Kit (Homo sapiens), P10721 [D816H], sequence (P10721 whole entry D816H): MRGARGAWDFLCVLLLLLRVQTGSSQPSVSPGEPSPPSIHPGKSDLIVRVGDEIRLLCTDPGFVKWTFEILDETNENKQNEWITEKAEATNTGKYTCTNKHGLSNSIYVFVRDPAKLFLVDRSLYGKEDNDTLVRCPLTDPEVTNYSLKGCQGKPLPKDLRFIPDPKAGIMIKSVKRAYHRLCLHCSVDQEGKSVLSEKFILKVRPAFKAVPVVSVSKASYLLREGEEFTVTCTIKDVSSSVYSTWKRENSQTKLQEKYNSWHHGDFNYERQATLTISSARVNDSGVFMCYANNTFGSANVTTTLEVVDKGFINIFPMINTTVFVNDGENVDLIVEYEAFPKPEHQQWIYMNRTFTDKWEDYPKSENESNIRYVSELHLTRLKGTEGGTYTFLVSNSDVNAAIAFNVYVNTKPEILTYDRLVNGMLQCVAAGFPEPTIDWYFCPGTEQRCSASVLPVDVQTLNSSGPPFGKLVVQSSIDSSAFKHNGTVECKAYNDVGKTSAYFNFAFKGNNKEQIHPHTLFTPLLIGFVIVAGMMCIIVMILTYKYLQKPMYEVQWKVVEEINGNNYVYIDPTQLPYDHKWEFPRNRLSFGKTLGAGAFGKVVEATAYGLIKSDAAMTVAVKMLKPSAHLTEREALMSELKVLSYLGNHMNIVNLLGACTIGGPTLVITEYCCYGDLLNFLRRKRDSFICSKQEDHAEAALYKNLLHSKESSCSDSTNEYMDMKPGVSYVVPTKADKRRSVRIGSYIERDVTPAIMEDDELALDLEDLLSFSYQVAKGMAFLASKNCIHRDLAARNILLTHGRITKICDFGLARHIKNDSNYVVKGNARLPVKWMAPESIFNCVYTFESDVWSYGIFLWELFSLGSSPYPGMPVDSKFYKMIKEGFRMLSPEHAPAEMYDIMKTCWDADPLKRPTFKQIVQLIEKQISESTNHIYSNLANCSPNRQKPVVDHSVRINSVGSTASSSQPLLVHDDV

[5] = system: Mast/stem cell growth factor receptor Kit (Homo sapiens), P10721 [V559D,T670I]; assay: as §1; assay type: cell-based; conditions: at 1 µM
Mast/stem cell growth factor receptor Kit (Homo sapiens), P10721 [V559D,T670I], sequence (P10721 whole entry V559D/T670I): as the sequence (P10721 whole entry D816H) above, with V559D, T670I, H816D counted along it

[6] = system: Mast/stem cell growth factor receptor Kit (Homo sapiens), P10721 [V559D,V654A]; assay: as §1; assay type: cell-based; conditions: at 1 µM
Mast/stem cell growth factor receptor Kit (Homo sapiens), P10721 [V559D,V654A], sequence (P10721 whole entry V559D/V654A): as the sequence (P10721 whole entry D816H) above, with V559D, V654A, H816D counted along it

[7] = system: Mast/stem cell growth factor receptor Kit (Homo sapiens), P10721 [V559D]; assay: as §1; assay type: cell-based; conditions: at 1 µM
Mast/stem cell growth factor receptor Kit (Homo sapiens), P10721 [V559D], sequence (P10721 whole entry V559D): as the sequence (P10721 whole entry D816H) above, with V559D, H816D counted along it

[8] = system: Mast/stem cell growth factor receptor Kit (Homo sapiens), P10721 [D816V]; assay: as §1; assay type: cell-based; conditions: at 1 µM
Mast/stem cell growth factor receptor Kit (Homo sapiens), P10721 [D816V], sequence (P10721 whole entry D816V): as the sequence (P10721 whole entry D816H) above, with H816V counted along it

[9] = system: Mast/stem cell growth factor receptor Kit (Homo sapiens), P10721 [A829P]; assay: as §1; assay type: cell-based; conditions: at 1 µM
Mast/stem cell growth factor receptor Kit (Homo sapiens), P10721 [A829P], sequence (P10721 whole entry A829P): as the sequence (P10721 whole entry D816H) above, with H816D, A829P counted along it

[10] = target: Mast/stem cell growth factor receptor Kit (Homo sapiens, UniProt P10721); assay: as §1; assay type: cell-based; conditions: at 1 µM
Mast/stem cell growth factor receptor Kit, sequence (P10721 whole entry): as the sequence (P10721 whole entry D816H) above, with H816D counted along it

[11] = system: Mast/stem cell growth factor receptor Kit (Homo sapiens), P10721 [L576P]; assay: as §1; assay type: cell-based; conditions: at 1 µM
Mast/stem cell growth factor receptor Kit (Homo sapiens), P10721 [L576P], sequence (P10721 whole entry L576P): as the sequence (P10721 whole entry D816H) above, with L576P, H816D counted along it

[12] = target: T3, Peripheral plasma membrane protein CASK (Homo sapiens) (UniProt O14936); assay: Selectivity interaction (KinomeScan (DiscoverX)) EUB0000607a CASK; conditions: at 10 µM
T3 sequence (whole entry): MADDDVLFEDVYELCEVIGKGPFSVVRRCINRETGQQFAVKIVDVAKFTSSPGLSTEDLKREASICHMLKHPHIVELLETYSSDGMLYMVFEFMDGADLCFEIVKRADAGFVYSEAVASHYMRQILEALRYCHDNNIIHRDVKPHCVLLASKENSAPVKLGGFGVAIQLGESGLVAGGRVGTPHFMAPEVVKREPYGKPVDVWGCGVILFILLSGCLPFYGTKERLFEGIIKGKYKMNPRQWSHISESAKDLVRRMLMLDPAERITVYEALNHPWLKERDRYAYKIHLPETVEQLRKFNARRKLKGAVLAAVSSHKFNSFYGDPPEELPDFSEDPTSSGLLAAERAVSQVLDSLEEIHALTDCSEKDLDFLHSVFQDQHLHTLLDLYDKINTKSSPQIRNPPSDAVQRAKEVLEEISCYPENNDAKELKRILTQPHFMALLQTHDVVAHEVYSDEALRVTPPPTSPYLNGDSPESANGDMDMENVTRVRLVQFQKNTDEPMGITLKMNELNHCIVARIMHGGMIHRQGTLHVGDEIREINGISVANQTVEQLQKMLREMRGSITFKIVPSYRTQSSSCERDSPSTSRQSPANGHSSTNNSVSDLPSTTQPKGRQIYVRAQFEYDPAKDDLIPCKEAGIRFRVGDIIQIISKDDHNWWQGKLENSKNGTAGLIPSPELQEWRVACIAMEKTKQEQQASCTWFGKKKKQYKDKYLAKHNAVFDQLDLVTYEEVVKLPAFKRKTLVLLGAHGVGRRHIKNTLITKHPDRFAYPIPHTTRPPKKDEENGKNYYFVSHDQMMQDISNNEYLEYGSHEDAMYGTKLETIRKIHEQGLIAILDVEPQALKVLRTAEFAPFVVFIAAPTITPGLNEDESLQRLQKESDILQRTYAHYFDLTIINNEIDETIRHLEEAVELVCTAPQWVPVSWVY

COc1cc(Nc2nc(C)cc(-c3cnn4nc(OC)ccc34)n2)cc(C(F)(F)F)c1 was tested, and the % of control [1] was 100%.
CC[C@@H]1[C@H](F)C(=O)N[C@@H]1COc1nccc2cc(C(N)=O)c(OC)cc12 [ZIMLOVISERTIB] showed a % of inhibition [2] of -8.1%.
With COCC(=O)NC/C=C/c1ccc2ncnc(Nc3ccc(Oc4ccc(C)nc4)c(C)c3)c2c1 [CP-724714] the % of control [3] was 100%.
For CN(C)C/C=C/C(=O)Nc1ccc(C(=O)N2CCCC(Nc3ncc(Cl)c(-c4c[nH]c5ccccc45)n3)C2)cc1 (configuration not stated), the % of control [4] was 76%, the % of control [5] was 95% and the % of control [6] was 74%. For the same compound, the % of control [7] was 82%, the % of control [8] was 92% and the % of control [9] was 75%. It also gave a % of control [10] of 93% and a % of control [11] of 82%.
CNC(=O)Nc1ccc(-c2nc(N3CC4CCC(C3)O4)c3cnn(C4CCC5(CC4)OCCO5)c3n2)cc1 gave a % of control [12] of 64%.

From ChEMBL document CHEMBL5465560, “Selectivity Literature for EUbOPEN Chemogenomic Library” (2024)
